# Patent US20230218555A1, “CREATINE, ITS DERIVATIVES, COMPOSITIONS AND METHODS OF USE THEREOF” (priority 2021, published 2023)
# Experiments:
# Assay type in all cases: in vivo, human
# sprained left ankle = test: Example 27: ankle sprain pain; conditions: 4% in WP 82, 2-3 times daily for 4-5 days
# Text: A subject sprained their left ankle while hiking.
# [1] = tested on: post trauma pain in the pinned ankle; test: Example 34: ankle pain after surgical insertion of metal screws; conditions: prior applications of C15 formulations
# Description: A subject with above described post trauma pain at the end of each day experienced painful discomfort in the pinned ankle. […] Complete relief lasted nearly 24 hours. At the end of the next day, the ankle was as painful as the days before. Subject applied 6% C20 in same liquid vehicle.
# post trauma pain = test: Example 33: post trauma pain of hand
# Text: A subject was provided a 9% solution of C15 in WEP 532 for possible use against itch or pain. Several weeks later they sent by e-mail the following message:
# “Yesterday I slammed the top of my hand accidentally against a door. That really hurt and I could barely move my hand. Started to ice it and then realized that I had decided to keep one bottle of the pain medicine here at the shore. […] Like a miracle. Iced it after as I could tell a welt was forming. Again at bedtime I put a little of the pain med on it in case the earlier application wore off and iced again as it was a bit swollen. Looked red and maybe a little swollen this morning but no pain!”
# [2] = tested on: pruritic urticarial mosquito bite lesions; test: Example 28: mosquito bite itch
# Description: Six subjects, 2 males and 4 females, age 31-74 years, who had gathered for a back yard cookout, suffered multiple mosquito bites. One subject carried 2 ounces of C15 6% in WEP 532 shared with the five others for topical application to the pruritic urticarial mosquito bite lesions.
# This solution was later applied to an intensely pruritic urticarial lesion, 1 cm in diameter, due to a mosquito bite. […] Clinical evidence of the lesion began to fade about 3 minutes later, and at 5 minutes the subject had no sensory awareness of the lesion as it disappeared over the next 10-15 minutes.
# painful right elbow = test: Example 24: osteoarthritis, elbow
# Description: A subject presented with a history of painful right elbow for several weeks. They were provided with a topical solution of C15 8% in WP 82.
# A subject with a history of right elbow for several months applied the above same solution to the elbo
# On three other occasions, C15 1.5% aqueous solution 1 ml was injected subcutaneously in two lateral sites of the elbow and one site over extensor part of the elbow.
# [3] = tested on: osteoarthritis of the knees; test: Example 24: osteoarthritis, knees
# Text: Several days later, a repeated application of the same procedure gave the same results.
# poison ivy dermatitis = test: Example 36: poison ivy dermatitis itch
# Description: A subject developed poison ivy dermatitis of their forearms about 18 hours after pruning bushes. Itch was intense at 24 hours when they applied C15 10% in a lotion made up of hydrophilic ointment USP 35% diluted with 65% water. […] Duration of itch relief next was for about 10 hours and the next for 12-15 hours. Relief was longer and longer from subsequent applications. Signs and symptoms of dermatitis were gone at 4 days.
# [4] = tested on: osteoarthritis of multiple joints; test: Example 18: whole body application
# Description: A subject with continually worsening very painful osteoarthritis of multiple joints for 15-16 years prepared the following formulation: […]
# N-Acetyl Ethyl Creatinate (C15): Water: Propylene glycol: Mineral Oil: Sodium lauryl sulfate […].
# After taking a morning shower, the entire 40 ml formulation was applied by themself and their assistants to their entire body, except the scalp. […] The subject was without any sense of pain for 4.5 hours when mild painful discomfort in the neck was sensed. Over the next 3 hours pain in all joints returned to usual substantial levels.
# [5] = tested on: Rheumatoid Arthritis (RA); test: Example 26: rheumatoid arthritis, intralesional injection and topical; conditions: 3-9% in WP 82 in nitrile gloves, 1 hour twice daily, after the creatine injections
# Description: A subject, described in an earlier Example, after approximately 4 months of worsening symptoms, and finger joint enlargements on both hands, realized that they were rapidly developing RA, especially when a rheumatoid nodule enlarged over the terminal joint of the left […] finger to a size of approximately 1 cm in diameter, and about 3 mm thick. The nodule was initially injected with 0.15 ml of a 2% aqueous solution/suspension of creatine monohydrate once weekly for 4 injections. […] Thereafter the subject wore a nitrile glove containing a few drops of C15 3-9% dissolved in WP 82 for an hour twice daily on the left hand only. After another 2 months C15 9% in WP 82 was topically applied by means of their wearing nitrile gloves containing the C15 solution for 1 hour twice daily. […] It is intended for the subject to continue topical treatment in one form or another for an indefinite time forward.
# [6] = tested on: acute pain in the left side of their neck; test: Example 11: acute neck pain; conditions: 1.5% in water: propylene glycol 8:2, topical to neck
# Text: A subject who had shoveled heavy snow all day, throwing the snow mostly to left, upon arising from bed the next morning experienced acute pain in the left side of their neck that intensified as they attempted to move their head in any direction.
# [7] = tested on: burning itch induced by Mucuna pruriens spicules; test: Example 38: burning itch induced by Mucuna pruriens; conditions: 10% in lotion
# Description: Pods with beans were obtained from Afro Caribe Botanica, 16 separate specimens. Small round brushes marketed for interdental cleaning were used to collect spicules from the pods. Application to both volar and extensor surfaces of the forearm were made by intense rubbing of the skin with such brush containing spicules. Burning itch developed within 5-7 minutes. […] Participants in this study included the following; • 1. A person. • 2. A person. • 3. A person. • 4. A person. • 5. A person.
compound,measurement,setting,value
"CCOC(=O)CN(C)C(N)=NC(C)=O [Compound C15, N-acetyl ethyl creatinate]",ankle pain at end of treatment,sprained left ankle,no ankle pain was detected
same,extent of pain relief,[1],substantially relieve the pain but not completely
same,relief of pain,"post trauma pain; 9% in WEP 532, topical to hand",in a minute or two the pain went away
same,pain next morning,post trauma pain; second application at bedtime,no pain
same,extent of itch relief,"[2]; 6% in WEP 532, topical, six subjects",itch was completely eradicated
same,extent of itch relief,"[2]; 6% in WEP 532, person one, lesion 1 cm",all itch sensation was gone and did not return
same,time to eradication of itch,"[2]; 6% in WEP 532, six subjects",about 1 minute
same,time to loss of itch sensation,[2]; person one,≤ 1 min
same,"time until lesion began to fade, after itch relief",[2]; person one,about 3 minutes
same,time of disappearance of lesion,"[2]; person one, counted from 5 minutes",10 to 15 min
same,return of itch,[2]; six subjects,No itch returned
same,extent of pain relief,"painful right elbow; 1.5% aqueous solution 1 ml subcutaneous, three sites of elbow, person",complete relief of pain
same,duration of relief,painful right elbow; 1.5% subcutaneous,24 to 30 h
same,time to pain relief,painful right elbow; 1.5% subcutaneous,within an hour
same,relief of pain,"painful right elbow; 8% in WP 82, topical multiple times, person",No pain relieve was experienced
same,duration of relief,"painful right elbow; 8% in WP 82, topical, person",5 to 6 h
same,relief of pain,"painful right elbow; 8% in WP 82, topical, person",relieved pain instantaneously completely
same,duration of pain relief,"[3]; 8% in WP 82, even with occlusion, person, severe osteoarthritis",3 to 4 h
same,extent of pain relief,"[3]; 8% in WP 82 on gauze wrapping occluded with plastic wrap, overnight, person",complete relief of pain
same,duration of complete relief (sleep),[3]; 8% with occlusion overnight,8 h
same,diminishment of pain after removal in the morning,"[3]; 8% with occlusion, person",85-90%
same,duration of diminishment after removal,"[3]; 8% with occlusion, person",7 to 8 h
same,relief of itch,"poison ivy dermatitis; 10% in lotion (hydrophilic ointment USP 35%, water 65%), forearms",Relief of itch was immediate
same,duration of itch relief,poison ivy dermatitis; first application,about 6 hours
same,time until signs and symptoms of dermatitis were gone,poison ivy dermatitis; repeated applications,4 days
same,duration of itch relief,poison ivy dermatitis; second application,about 10 hours
same,duration of itch relief,poison ivy dermatitis; third application,12 to 15 h
same,extent of pain relief,"[4]; 40 ml formulation applied to entire body except scalp, person",all pain ceased in all previously painful joints
same,duration without any sense of pain,[4]; whole body application,4.5 h
same,time to pain relief,[4]; whole body application,about 5 minutes
same,appearance of hands after 9 months of treatments,[5],both hands appear to be completely normal
same,time to pain relief,[6],≤ 2 min
same,extent of pain relief,[6]; person,neck pain subsided completely and did not return
same,persistence of relief,[7],permanent
same,time to complete relief of itch,[7],1 to 2 min
same,extent of itch relief,"[7]; forearm, five participants",complete relief of itch
